Consider 24 compounds from patent US8173636B2, “Hydroxylthienoquinolones and related compounds as anti-infective agents” (Achillion Pharmaceuticals, Inc., priority 2009, dated 2012).

Values after ≈ are worked out from the molar mass of the structure shown.

One experiment has as its system S. aureus ATCC 29213. Kind of experiment: Minimum inhibitory concentration (MIC) assay, broth microdilution, MSSA. The class given is cell-based. To be noted: Staphylococcus aureus, Table I. The method, then: (§1) The antimicrobial activity of the compounds of the invention may be evaluated by a number of methods, including the following visual minimum inhibitory concentration (MIC) assay. This assay determines the minimum concentration of compound required to inhibit growth of a bacterial strain.
(§2) Whole-cell antibacterial activity is determined by broth microdilution using conditions recommended by the NCCLS (see National Committee for Clinical Laboratory Standards. 2001. Performance standards for antimicrobial susceptibility testing: 11th informational supplement. Vol. 21, no. 1, M100-S11. National Committee for Clinical Laboratory Standards, Wayne, Pa.). Test compounds are dissolved in DMSO and diluted 1:50 in Mueller-Hinton II broth (Becton-Dickinson) to produce a 256 μg/ml stock solution. In a 96-well microtiter plate, the compound solution is serially two-fold diluted in Mueller-Hinton II broth. After the compounds are diluted, a 50 μl aliquot of the test organism (˜1×10^6 cfu/mL) is added to each well of the microtiter plate. The final test concentrations ranges from 0.125-128 μg/mL. Inoculated plates are incubated in ambient air at 37° C. for 18 to 24 hours. The organisms selected for testing included laboratory strains S. aureus ATCC 29213 and E. coli ATCC 25922 (strains purchased from American Type Culture Collection, Manassas, Va.) m, S. aureus FQR700699, and Paeruginosa 27853. The minimum inhibitory concentration (MIC) is determined as the lowest concentration of compound that inhibited visible growth of the test organism.

The test system of experiment [1] is fluoroquinolone-resistant S. aureus ATCC 700699. Briefly: Minimum inhibitory concentration (MIC) assay, broth microdilution, MRSA. The class given is cell-based. As to conditions: Staphylococcus aureus; fluoroquinolone-resistant S. aureus ATCC 700699; Table I; read-out: MRSA MIC. The method, then: as §1, §2

Take `COc1c(N2CC(O)C2)c(F)cc2c(=O)c3c(O)c(C#N)sc3n(C3CC3)c12` [Cmp 24, 9-cyclopropyl-6-fluoro-3-hydroxyl-7-(3-hydroxylazetidin-1-yl)-8-methoxy-4-oxo-4,9-dihydrothieno[2,3-b]quinoline-2-carbonitrile]: the MIC against S. aureus ATCC 29213 amounted to 0.06 µg/mL (≈ 0.149 µM); in experiment [1], 1 µg/mL (≈ 2.49 µM).

Turning to `COc1c(N2CCNCC2)ccc2c(=O)c3c(O)c(C#N)sc3n(C3CC3)c12` [Cmp 19, 9-cyclopropyl-3-hydroxyl-8-methoxy-4-oxo-7-(piperazin-1-yl)-4,9-dihydrothieno[2,3-b]quinoline-2-carbonitrile], the results for the minimum inhibitory concentration (MIC) (against S. aureus ATCC 29213; in experiment [1]) were 0.25 µg/mL (≈ 0.631 µM) and 4 µg/mL (≈ 10.1 µM), respectively.

As for `COc1c(N2CCNCC2)c(F)cc2c(=O)c3c(O)c(C(=O)C(F)(F)F)sc3n(C3CC3)c12` [Cmp 20, 9-cyclopropyl-6-fluoro-3-hydroxyl-8-methoxy-7-(piperazin-1-yl)-2-(2,2,2-trifluoroacetyl)thieno[2,3-b]quinolin-4(9H)-one], the minimal inhibitory concentration (MIC) against S. aureus ATCC 29213 was 64 µg/mL (≈ 132 µM); in experiment [1], more than 64 µg/mL.

With `COc1c(N2CCNCC2)c(F)cc2c(=O)c3c(O)csc3n(C3CC3)c12` [Cmp 8, 9-cyclopropyl-6-fluoro-3-hydroxyl-8-methoxy-7-(piperazin-1-yl)thieno[2,3-b]quinolin-4(9H)-one], the values for the minimum inhibitory concentration (MIC) (with S. aureus ATCC 29213; in experiment [1]) were 32 µg/mL (≈ 82.2 µM) and more than 64 µg/mL, respectively.

As for `COc1c(N2CC[C@@H](C(C)(C)N)C2)c(F)cc2c(=O)c3c(O)csc3n(C3CC3)c12` [Cmp 6, (R)-7-(3-(2-aminopropan-2-yl)pyrrolidin-1-yl)-9-cyclopropyl-6-fluoro-3-hydroxyl-8-methoxythieno[2,3-b]quinolin-4(9H)-one], the MIC against S. aureus ATCC 29213 came to 2 µg/mL (≈ 4.63 µM); in experiment [1], 32 µg/mL (≈ 74.2 µM).

Turning to `COc1c(N2CCC(N)CC2)c(F)cc2c(=O)c3c(O)c(C#N)sc3n(C3CC3)c12` [Cmp 29, 7-(4-aminopiperidin-1-yl)-9-cyclopropyl-6-fluoro-3-hydroxyl-8-methoxy-4-oxo-4,9-dihydrothieno[2,3-b]quinoline-2-carbonitrile], the figures for the MIC (in the experiment on S. aureus ATCC 29213; in experiment [1]) were 0.03 µg/mL (≈ 0.07 µM) and 0.5 µg/mL (≈ 1.17 µM), respectively.

Turning to `CCNC(C)(C)[C@@H]1CCN(c2c(F)cc3c(=O)c4c(O)c(C#N)sc4n(C4CC4)c3c2OC)C1` [Cmp 35, (R)-9-cyclopropyl-7-(3-(2-(ethylamino)propan-2-yl)pyrrolidin-1-yl)-6-fluoro-3-hydroxyl-8-methoxy-4-oxo-4,9-dihydrothieno [2,3-b]quinoline-2-carbonitrile], the MIC with S. aureus ATCC 29213 was found to be 0.06 µg/mL (≈ 0.124 µM); in experiment [1], 0.5 µg/mL (≈ 1.03 µM).

For `COc1c(-c2cn[nH]c2)c(F)cc2c(=O)c3c(n(C4CC4)c12)SC(C#N)C3=O` (stereo not drawn) [Cmp 51, 9-cyclopropyl-6-fluoro-8-methoxy-3,4-dioxo-7-(1H-pyrazol-4-yl)-2,3,4,9-tetrahydrothieno[2,3-b]quinoline-2-carbonitrile], the figures for the MIC (in the experiment with S. aureus ATCC 29213; in experiment [1]) were 0.03 µg/mL (≈ 0.0757 µM) and 0.5 µg/mL (≈ 1.26 µM), respectively.

For the compound `COc1c(N2CCNC(C(N)=O)C2)c(F)cc2c(=O)c3c(n(C4CC4)c12)SC(C#N)C3=O` (stereo not drawn) [Cmp 52, 4-(2-cyano-9-cyclopropyl-6-fluoro-8-methoxy-3,4-dioxo-2,3,4,9-tetrahydrothieno[2,3-b]quinolin-7-yl) piperazine-2-carboxamide], the MIC in the experiment with S. aureus ATCC 29213 turned out to be 0.25 µg/mL (≈ 0.546 µM); in experiment [1], 2 µg/mL (≈ 4.37 µM).

Regarding `CN(C)c1ccc2c(=O)c3c(O)c(C#N)sc3n(C3CC3)c2c1OC(F)F` [Cmp 17, 9-cyclopropyl-8-(difluoromethoxy)-7-(dimethylamino)-3-hydroxyl-4-oxo-4,9-dihydrothieno[2,3-b]quinoline-2-carbonitrile], the MIC in the experiment with S. aureus ATCC 29213 was found to be 4 µg/mL (≈ 10.2 µM); in experiment [1], 64 µg/mL (≈ 164 µM).

Consider `COc1c(N2CCC(c3ncn[nH]3)CC2)c(F)cc2c(=O)c3c(n(C4CC4)c12)SC(C#N)C3=O` (stereo not drawn) [Cmp 48, 7-(4-(1H-1,2,4-triazol-5-yl)piperidin-1-yl)-9-cyclopropyl-6-fluoro-8-methoxy-3,4-dioxo-2,3,4,9-tetrahydrothieno [2,3-b]quinoline-2-carbonitrile], for which the MIC in the experiment on S. aureus ATCC 29213 turned out to be 0.03 µg/mL (≈ 0.0624 µM); in experiment [1], 0.25 µg/mL (≈ 0.52 µM).

Regarding `COc1c(N2CC[C@@H](C(C)(C)N(C)C)C2)c(F)cc2c(=O)c3c(O)c(C#N)sc3n(C3CC3)c12` [Cmp 36, (R)-9-cyclopropyl-7-(3-(2-(dimethylamino)propan-2-yl)pyrrolidin-1-yl)-6-fluoro-3-hydroxyl-8-methoxy-4-oxo-4,9-dihydrothieno[2,3-b]quinoline-2-carbonitrile], the MIC is 0.25 µg/mL (≈ 0.516 µM) against S. aureus ATCC 29213 and 2 µg/mL (≈ 4.13 µM) in experiment [1].

With `COc1c(N2CCC[C@H]2C(N)=O)c(F)cc2c(=O)c3c(n(C4CC4)c12)SC(C#N)C3=O` (stereo partly drawn) [Cmp 46, (2S)-1-(2-cyano-9-cyclopropyl-6-fluoro-8-methoxy-3,4-dioxo-2,3,4,9-tetrahydrothieno[2,3-b]quinolin-7-yl)pyrrolidine-2-carboxamide], the MIC was 4 µg/mL (≈ 9.04 µM) in the experiment on S. aureus ATCC 29213 and 64 µg/mL (≈ 145 µM) in experiment [1].

`COc1c(N2CC[C@@H]([C@H](C)N)C2)c(F)cc2c(=O)c3c(O)c(C#N)sc3n(C3CC3)c12` [Cmp 11, 7-((R)-3-((S)-1-aminoethyl)pyrrolidin-1-yl)-9-cyclopropyl-6-fluoro-3-hydroxyl-8-methoxy-4-oxo-4,9-dihydrothieno[2,3-b] quinoline-2-carbonitrile]: the MIC against S. aureus ATCC 29213 is 0.02 µg/mL (≈ 0.0452 µM); in experiment [1] it was 0.094 µg/mL (≈ 0.212 µM).

In the case of `COc1c(N2C[C@@H]3CCCN[C@@H]3C2)c(F)cc2c(=O)c3c(O)c(C#N)sc3n(C3CC3)c12` [Cmp 38, 9-cyclopropyl-6-fluoro-3-hydroxyl-8-methoxy-4-oxo-7-((4aS,7aS)-tetrahydro-1H-pyrrolo[3,4-b]pyridin-6(2H,7H,7aH)-yl)-4,9-dihydrothieno[2,3-b]quinoline-2-carbonitrile], the values for the minimum inhibitory concentration (MIC) (with S. aureus ATCC 29213; in experiment [1]) were 0.5 µg/mL (≈ 1.1 µM) and 8 µg/mL (≈ 17.6 µM), respectively.

For `COc1c(N2CCCC(=C(F)CN)C2)c(F)cc2c(=O)c3c(O)c(C(C)=O)sc3n(C3CC3)c12` [Cmp 66, 2-acetyl-7-(3-(2-amino-1-fluoroethylidene)piperidin-1-yl)-9-cycloprop-6-fluoro-3-hydroxyl-8-methoxythieno[2,3-b] quinolin-4(9H)-one], the MIC with S. aureus ATCC 29213 was 0.25 µg/mL (≈ 0.511 µM); in experiment [1] it was 0.5 µg/mL (≈ 1.02 µM).

`COc1c(N2CCC[C@H](N)C2)c(F)cc2c(=O)c3c(O)c(C#N)sc3n(C3CC3)c12` [Cmp 54, (S)-7-(3-aminopiperidin-1-yl)-9-cyclopropyl-6-fluoro-3-hydroxyl-8-methoxy-4-oxo-4,9-dihydrothieno[2,3-b] quinoline-2-carbonitrile]: the MIC in the experiment with S. aureus ATCC 29213 stood at 0.13 µg/mL (≈ 0.303 µM); in experiment [1], 0.5 µg/mL (≈ 1.17 µM).

In the case of `C[C@H]1COc2c(N3CCNCC3)c(F)cc3c(=O)c4c(n1c23)SC(C#N)C4=O` (stereo partly drawn) [Cmp 47, (1S)-5-fluoro-1-methyl-7,8-dioxo-4-(piperazin-1-yl)-2,7,8,9-tetrahydro-1H-[1,4]oxazino[2,3,4-ij]thieno[2,3-b] quinoline-9-carbonitrile], the minimum inhibitory concentration (MIC) amounted to 1 µg/mL (≈ 2.5 µM) in the experiment on S. aureus ATCC 29213 and 4 µg/mL (≈ 9.99 µM) in experiment [1].

Turning to `COC(=O)c1sc2c(c1O)c(=O)c1cc(F)c(N3CCNCC3)c(OC)c1n2C1CC1` [Cmp 7, methyl 9-cyclopropyl-6-fluoro-3-hydroxyl-8-methoxy-4-oxo-7-(piperazin-1-yl)-4,9-dihydrothieno[2,3-b] quinoline-2-carboxylate], the values for the minimal inhibitory concentration (MIC) (against S. aureus ATCC 29213; in experiment [1]) were 3 µg/mL (≈ 6.7 µM) and 32 µg/mL (≈ 71.5 µM), respectively.

For `N#CCN1CCN(c2c(F)cc3c(=O)c4c(O)c(C#N)sc4n(C4CC4)c3c2OC(F)F)CC1` [Cmp 18, 7-(4-(cyanomethyl)piperazin-1-yl)-9-cyclopropyl-8-(difluoromethoxy)-6-fluoro-3-hydroxyl-4-oxo-4,9-dihydrothieno [2,3-b]quinoline-2-carbonitrile], the MIC against S. aureus ATCC 29213 is 0.13 µg/mL (≈ 0.266 µM); in experiment [1] it was 4 µg/mL (≈ 8.17 µM).

Turning to `COc1c(N2CC3CC2CN3)c(F)cc2c(=O)c3c(O)c(C#N)sc3n(C3CC3)c12` (stereo not drawn) [Cmp 41, 7-(2,5-diazabicyclo[2.2.1]heptan-2-yl)-9-cyclopropyl-6-fluoro-3-hydroxyl-8-methoxy-4-oxo-4,9-dihydrothieno [2,3-b]quinoline-2-carbonitrile], the MIC in the experiment on S. aureus ATCC 29213 turned out to be 0.13 µg/mL (≈ 0.305 µM); in experiment [1], 1 µg/mL (≈ 2.34 µM).

On to `CNC(C)(C)[C@@H]1CCN(c2c(F)cc3c(=O)c4c(O)c(C#N)sc4n(C4CC4)c3c2OC)C1` [Cmp 34, (R)-9-cyclopropyl-6-fluoro-3-hydroxyl-8-methoxy-7-(3-(2-(methylamino)propan-2-yl)pyrrolidin-1-yl)-4-oxo-4,9-dihydrothieno[2,3-b]quinoline-2-carbonitrile], for which the results for the MIC (against S. aureus ATCC 29213; in experiment [1]) were 0.06 µg/mL (≈ 0.128 µM) and 0.5 µg/mL (≈ 1.06 µM), respectively.

For the compound `COc1c(N2CCNCC2)c(F)cc2c(=O)c3c(O)c(C(N)=O)sc3n(C3CC3)c12` [Cmp 25, 9-cyclopropyl-6-fluoro-3-hydroxyl-8-methoxy-4-oxo-7-(piperazin-1-yl)-4,9-dihydrothieno[2,3-b]quinoline-2-carboxamide], the minimal inhibitory concentration (MIC) against S. aureus ATCC 29213 stood at 0.25 µg/mL (≈ 0.578 µM); in experiment [1], 2 µg/mL (≈ 4.62 µM).

With `CCC(=O)c1sc2c(c1O)c(=O)c1cc(F)c(N3CC[C@@H](C(C)(C)N)C3)c(OC)c1n2C1CC1` [Cmp 62, (R)-7-(3-(2-aminopropan-2-yl)pyrrolidin-1-yl)-9-cyclopropyl-6-fluoro-3-hydroxyl-8-methoxy-2-propionylthieno [2,3-b]quinolin-4(9H)-one], the results for the minimal inhibitory concentration (MIC) (with S. aureus ATCC 29213; in experiment [1]) were 0.5 µg/mL (≈ 1.03 µM) and 1 µg/mL (≈ 2.05 µM), respectively.
